Data taken from the supplement of paper PMC6045584.
± gives the standard deviation of the averaged measurements.

Experiments:
[1] = compound: CNCc1ccc(-c2[nH]c3cc(F)cc4c3c2CCNC4=O)cc1; experiment: surviving fraction relative to DMSO-only wells; higher = less growth inhibition; conditions: exposure time: 5 days
Method in brief: (§1)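 Tumour cell lines were seeded in log phase at 250–500 cells per well into 384-well plates. Starting 24 hours later, inhibitors were present continuously for five days at 0.5, 1, 5, 10, 50, 100, 500 and 1000 nM. Surviving fraction, from CellTiter-Glo luminescence, is normalised to the median of DMSO-only wells. Three screens per line were required, with replicate Pearson r >0.7 and median Z' >0.3 for a line to be kept.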

[2] = compound: COc1cc2c(Oc3ccc(NC(=O)C4(C(=O)Nc5ccc(F)cc5)CC4)cc3F)ccnc2cc1OCCCN1CCOCC1 [FORETINIB]; experiment: as above; conditions: exposure time: 5 days
Method in brief: as §1

| Test System | surviving fraction ([1]; 0.5 nM) | surviving fraction ([1]; 1 nM) | surviving fraction ([1]; 5 nM) | surviving fraction ([1]; 10 nM) | surviving fraction ([1]; 50 nM) | surviving fraction ([1]; 100 nM) | surviving fraction ([1]; 500 nM) | surviving fraction ([1]; 1000 nM) | surviving fraction ([2]; 0.5 nM) | surviving fraction ([2]; 1 nM) | surviving fraction ([2]; 5 nM) | surviving fraction ([2]; 10 nM) | surviving fraction ([2]; 50 nM) | surviving fraction ([2]; 100 nM) | surviving fraction ([2]; 500 nM) | surviving fraction ([2]; 1000 nM) |
| --- | --- | --- | --- | --- | --- | --- | --- | --- | --- | --- | --- | --- | --- | --- | --- | --- |
| SCC47 HEADNECK | 1.04 ± 0.067 | 1.03 ± 0.042 | 1.08 ± 0.048 | 1.12 ± 0.025 | 1.04 ± 0.07 | 1.05 ± 0.074 | 1.05 ± 0.032 | 0.987 ± 0.063 | 1.17 ± 0.042 | 1.2 ± 0.09 | 1.18 ± 0.029 | 1.19 ± 0.06 | 1.12 ± 0.014 | 1.02 ± 0.035 | 0.97 ± 0.047 | 0.51 ± 0.024 |
| SCC90 HEADNECK | 0.96 ± 0.039 | 1 ± 0.071 | 0.998 ± 0.058 | 1.06 ± 0.1 | 0.934 ± 0.13 | 0.916 ± 0.062 | 0.9207 ± 0.0047 | 0.948 ± 0.11 | 1.08 ± 0.073 | 1.02 ± 0.045 | 1.1 ± 0.19 | 1.08 ± 0.071 | 1.23 ± 0.061 | 1.12 ± 0.12 | 0.753 ± 0.077 | 0.753 ± 0.25 |
| SG27 HEADNECK | 1.15 ± 0.14 | 1.18 ± 0.21 | 0.878 ± 0.14 | 1.14 ± 0.11 | 0.968 ± 0.093 | 0.923 ± 0.03 | 1.05 ± 0.062 | 0.989 ± 0.063 | 0.986 ± 0.14 | 1.12 ± 0.063 | 1.07 ± 0.11 | 1.11 ± 0.14 | 0.962 ± 0.12 | 1.02 ± 0.075 | 0.901 ± 0.11 | 0.829 ± 0.078 |
| SG28 HEADNECK | 1.09 ± 0.1 | 0.995 ± 0.011 | 0.953 ± 0.012 | 1 ± 0.073 | 0.763 ± 0.056 | 0.723 ± 0.046 | 0.798 ± 0.086 | 0.76 ± 0.12 | 1.04 ± 0.07 | 1.15 ± 0.12 | 1.12 ± 0.077 | 0.972 ± 0.011 | 1.02 ± 0.054 | 0.941 ± 0.054 | 0.826 ± 0.023 | 0.512 ± 0.046 |
| SG31 HEADNECK | 1.31 ± 0.25 | 1.14 ± 0.13 | 1.11 ± 0.15 | 1.12 ± 0.092 | 0.922 ± 0.12 | 0.845 ± 0.061 | 0.929 ± 0.12 | 0.947 ± 0.09 | 1.38 ± 0.16 | 1.41 ± 0.11 | 1.1 ± 0.18 | 1.09 ± 0.21 | 0.969 ± 0.14 | 1.12 ± 0.11 | 1.02 ± 0.17 | 0.898 ± 0.087 |
| SG32 HEADNECK | 0.993 ± 0.27 | 1.01 ± 0.2 | 0.984 ± 0.17 | 1.02 ± 0.035 | 0.704 ± 0.061 | 0.716 ± 0.14 | 0.682 ± 0.075 | 0.566 ± 0.17 | 1.15 ± 0.13 | 1.24 ± 0.36 | 1.27 ± 0.19 | 1.22 ± 0.041 | 1.03 ± 0.1 | 1.17 ± 0.26 | 0.374 ± 0.011 | 0.264 ± 0.0095 |
| SG43 HEADNECK | 1.13 ± 0.22 | 1.05 ± 0.17 | 0.927 ± 0.14 | 0.82 ± 0.18 | 1.06 ± 0.26 | 1.13 ± 0.24 | 1.15 ± 0.14 | 1.46 ± 0.17 | 1.03 ± 0.26 | 0.918 ± 0.14 | 0.678 ± 0.063 | 0.732 ± 0.032 | 0.727 ± 0.15 | 0.883 ± 0.12 | 0.545 ± 0.11 | 0.247 ± 0.076 |
| SIHA CERVIX | 0.984 ± 0.028 | 1.06 ± 0.13 | 1.09 ± 0.03 | 1.01 ± 0.035 | 0.907 ± 0.064 | 0.934 ± 0.023 | 1.03 ± 0.021 | 0.832 ± 0.037 | 1.12 ± 0.02 | 1.18 ± 0.04 | 1.09 ± 0.046 | 1.09 ± 0.081 | 1.01 ± 0.066 | 1.01 ± 0.031 | 0.667 ± 0.019 | 0.523 ± 0.0076 |
| SJSA1 BONE | 1.35 ± 0.059 | 1.7 ± 0.1 | 1.6 ± 0.045 | 1.8 ± 0.1 | 1.7 ± 0.073 | 1.76 ± 0.059 | 1.65 ± 0.017 | 1.74 ± 0.068 | 1.14 ± 0.026 | 1.7 ± 0.03 | 1.69 ± 0.15 | 1.74 ± 0.063 | 1.48 ± 0.1 | 1.74 ± 0.075 | 1.46 ± 0.069 | 1.83 ± 0.038 |
| SKBR3 BREAST | 0.907 ± 0.11 | 0.895 ± 0.12 | 0.9 ± 0.14 | 0.841 ± 0.11 | 0.703 ± 0.1 | 0.813 ± 0.052 | 0.733 ± 0.14 | 0.734 ± 0.026 | 1.11 ± 0.02 | 1.14 ± 0.15 | 1.08 ± 0.063 | 1.08 ± 0.15 | 1.13 ± 0.066 | 0.982 ± 0.064 | 0.886 ± 0.065 | 0.868 ± 0.11 |
| SNU475 LIVER | 0.999 ± 0.052 | 0.982 ± 0.039 | 0.992 ± 0.065 | 0.99 ± 0.026 | 0.919 ± 0.027 | 0.916 ± 0.028 | 0.863 ± 0.053 | 0.892 ± 0.043 | 1.05 ± 0.052 | 1.03 ± 0.025 | 0.957 ± 0.087 | 1 ± 0.036 | 0.967 ± 0.016 | 0.979 ± 0.035 | 0.853 ± 0.055 | 0.502 ± 0.03 |
| SUM44 BREAST | 0.927 ± 0.097 | 0.981 ± 0.098 | 1.01 ± 0.14 | 1.02 ± 0.11 | 0.841 ± 0.088 | 0.911 ± 0.027 | 0.892 ± 0.061 | 0.896 ± 0.042 | 1.14 ± 0.27 | 1.19 ± 0.36 | 1.18 ± 0.27 | 1.23 ± 0.31 | 1.19 ± 0.21 | 1.26 ± 0.32 | 1.11 ± 0.17 | 1.12 ± 0.19 |
| SUM149 BREAST | 0.887 ± 0.032 | 0.997 ± 0.037 | 0.778 ± 0.039 | 0.779 ± 0.1 | 0.673 ± 0.067 | 0.665 ± 0.088 | 0.497 ± 0.033 | 0.494 ± 0.014 | 0.95 ± 0.004 | 0.912 ± 0.011 | 1.04 ± 0.17 | 0.9 ± 0.0082 | 0.831 ± 0.036 | 0.969 ± 0.13 | 0.353 ± 0.05 | 0.409 ± 0.021 |
| SUM149.B1*.S BREAST | 1.12 ± 0.023 | 1.1 ± 0.022 | 1.07 ± 0.045 | 1.1 ± 0.045 | 1.01 ± 0.04 | 1.02 ± 0.033 | 0.94 ± 0.053 | 1 ± 0.056 | 1.13 ± 0.068 | 1.19 ± 0.078 | 1.12 ± 0.022 | 1.11 ± 0.021 | 1.11 ± 0.059 | 1.09 ± 0.054 | 0.855 ± 0.033 | 0.515 ± 0.067 |
| SUM159 BREAST | 1.09 ± 0.024 | 1.1 ± 0.027 | 1.09 ± 0.035 | 1.07 ± 0.02 | 1.06 ± 0.044 | 1.04 ± 0.0053 | 1.06 ± 0.019 | 1.05 ± 0.018 | 1.13 ± 0.038 | 1.12 ± 0.046 | 1.11 ± 0.038 | 1.09 ± 0.028 | 1.071 ± 0.0061 | 1.06 ± 0.018 | 1.01 ± 0.018 | 0.566 ± 0.037 |
| SYO1 SYNOVIAL | 0.954 ± 0.081 | 0.921 ± 0.022 | 0.842 ± 0.014 | 0.8 ± 0.019 | 0.655 ± 0.029 | 0.587 ± 0.032 | 0.455 ± 0.037 | 0.351 ± 0.04 | 0.989 ± 0.038 | 0.971 ± 0.05 | 0.929 ± 0.026 | 0.914 ± 0.027 | 0.821 ± 0.013 | 0.749 ± 0.028 | 0.25 ± 0.0099 | 0.189 ± 0.026 |
| T47D BREAST | 0.999 ± 0.015 | 1.04 ± 0.019 | 1.04 ± 0.021 | 0.999 ± 0.019 | 0.969 ± 0.033 | 0.954 ± 0.046 | 0.911 ± 0.0085 | 0.943 ± 0.023 | 1.02 ± 0.032 | 1.08 ± 0.056 | 1.08 ± 0.023 | 1.08 ± 0.029 | 1.04 ± 0.025 | 1.08 ± 0.04 | 0.897 ± 0.064 | 0.898 ± 0.028 |
| U2OS BONE | 1 ± 0.016 | 1.01 ± 0.051 | 1.03 ± 0.036 | 1.06 ± 0.031 | 0.961 ± 0.011 | 0.926 ± 0.037 | 0.883 ± 0.013 | 0.774 ± 0.052 | 1.03 ± 0.018 | 1 ± 0.021 | 1.04 ± 0.034 | 1.01 ± 0.037 | 1.03 ± 0.059 | 0.958 ± 0.03 | 0.558 ± 0.028 | 0.344 ± 0.024 |
| VCAP PROSTATE | 1.01 ± 0.11 | 1.04 ± 0.14 | 1.06 ± 0.21 | 1.04 ± 0.052 | 0.921 ± 0.12 | 1.02 ± 0.07 | 0.881 ± 0.15 | 0.908 ± 0.092 | 0.975 ± 0.059 | 0.96 ± 0.13 | 1.12 ± 0.094 | 1.03 ± 0.082 | 1.11 ± 0.1 | 1.08 ± 0.2 | 0.547 ± 0.09 | 0.4 ± 0.044 |
| VP229 BREAST | 1.15 ± 0.18 | 1.01 ± 0.14 | 1.04 ± 0.058 | 1.01 ± 0.12 | 0.954 ± 0.042 | 0.848 ± 0.076 | 0.823 ± 0.05 | 0.917 ± 0.067 | 1.31 ± 0.085 | 1.09 ± 0.11 | 1.13 ± 0.14 | 1.07 ± 0.1 | 1.14 ± 0.11 | 1.05 ± 0.15 | 0.808 ± 0.14 | 0.616 ± 0.15 |
| YAMATO SYNOVIAL | 1.32 ± 0.043 | 1.35 ± 0.12 | 1.28 ± 0.066 | 1.3 ± 0.1 | 0.949 ± 0.13 | 0.982 ± 0.11 | 0.794 ± 0.022 | 0.811 ± 0.13 | 0.998 ± 0.072 | 1.16 ± 0.098 | 1 ± 0.12 | 1.02 ± 0.078 | 0.585 ± 0.025 | 0.369 ± 0.035 | 0.295 ± 0.017 | 0.272 ± 0.018 |
| ZR751 BREAST | 0.991 ± 0.15 | 0.962 ± 0.049 | 0.981 ± 0.075 | 1.1 ± 0.11 | 0.873 ± 0.056 | 0.903 ± 0.075 | 0.823 ± 0.037 | 0.709 ± 0.12 | 1.04 ± 0.21 | 1.12 ± 0.12 | 0.969 ± 0.1 | 1.06 ± 0.16 | 0.963 ± 0.06 | 1.07 ± 0.062 | 0.902 ± 0.062 | 0.783 ± 0.1 |
